Results as given in ChEMBL document CHEMBL1134124, “Isoindolines: a new series of potent and selective endothelin-A receptor antagonists” (Bioorg Med Chem Lett, 2001).

Legend:
Endothelin-1 receptor [1] = biological target: T1, Endothelin-1 receptor (Homo sapiens, UniProt P25101); assay: In vitro inhibition of [125I]ET1 binding to CHO cells expressing recombinant human Endothelin A receptor; type: cell-based
T1 sequence (P25101 whole entry): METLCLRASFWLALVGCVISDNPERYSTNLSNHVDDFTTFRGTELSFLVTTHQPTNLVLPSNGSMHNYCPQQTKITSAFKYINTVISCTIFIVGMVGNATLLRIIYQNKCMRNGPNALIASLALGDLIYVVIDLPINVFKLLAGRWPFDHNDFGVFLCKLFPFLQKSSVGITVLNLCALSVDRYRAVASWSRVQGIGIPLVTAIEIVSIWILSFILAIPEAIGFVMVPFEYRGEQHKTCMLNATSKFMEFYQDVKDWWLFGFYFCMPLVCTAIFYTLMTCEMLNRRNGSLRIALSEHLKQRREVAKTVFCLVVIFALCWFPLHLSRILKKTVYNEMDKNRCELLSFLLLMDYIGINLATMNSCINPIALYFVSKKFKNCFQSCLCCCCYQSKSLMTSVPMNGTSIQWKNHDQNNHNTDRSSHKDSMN

[2] = biological target: T2, Endothelin receptor type B (Homo sapiens) (UniProt P24530); assay: Inhibition of [125I]ET1 binding to CHO cells expressing human Endothelin B receptor at a concentration of 1 uM; type: cell-based
T2 sequence (whole entry): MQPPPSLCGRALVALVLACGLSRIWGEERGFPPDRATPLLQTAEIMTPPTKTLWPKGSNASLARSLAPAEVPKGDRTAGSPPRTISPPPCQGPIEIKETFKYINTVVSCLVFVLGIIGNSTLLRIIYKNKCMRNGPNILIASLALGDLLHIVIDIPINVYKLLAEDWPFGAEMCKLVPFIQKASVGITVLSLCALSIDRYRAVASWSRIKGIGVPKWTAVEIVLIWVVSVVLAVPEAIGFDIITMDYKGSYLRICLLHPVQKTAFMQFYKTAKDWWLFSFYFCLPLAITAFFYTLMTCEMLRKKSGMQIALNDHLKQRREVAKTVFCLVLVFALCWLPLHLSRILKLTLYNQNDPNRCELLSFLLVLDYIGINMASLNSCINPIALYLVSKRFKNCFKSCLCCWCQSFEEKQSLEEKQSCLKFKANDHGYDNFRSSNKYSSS

Rattus norvegicus = organism: Rattus norvegicus; assay: Tested for antagonising activity against ET-1 induced contraction of rat aorta; type: functional
Endothelin-1 receptor [3] = biological target: T1, Endothelin-1 receptor; assay: Tested for in vitro inhibition of [125I]ET1 binding to CHO cells expressing human Endothelin A receptor; type: cell-based
[4] = biological target: T3, Endothelin receptor type B (Homo sapiens, UniProt P24530); assay: Inhibition of [125I]-ET-1 binding to CHO cells expressing human Endothelin B receptor […]; type: cell-based
T3 sequence (P24530 whole entry): T2 sequence (whole entry)

Structure (SMILES)	IC50 (Endothelin-1 receptor [1])	inhibition [2]	pKB (Rattus norvegicus)	Ki (Endothelin-1 receptor [3])	Ki [4]
CCOc1ccc2c(c1)[C@@H](c1ccc(OC)cc1OCc1nnn[nH]1)N(CC(=O)O)[C@@H]2c1ccc2c(c1)OCO2	0.029 µM	–	–	–	–
CCOc1ccc2c(c1)[C@H](c1ccc(OC)cc1O)N(CC(=O)O)[C@@H]2c1ccc2c(c1)OCO2	0.058 µM	13%	–	–	–
CCOc1ccc2c(c1)[C@H](c1cc(OC)c(OC)c(OC)c1OCC(=O)O)N(CC(=O)O)[C@@H]2c1ccc2c(c1)OCO2	0.33 µM	10%	–	–	–
CCOc1ccc2c(c1)[C@H](c1ccc(OC)cc1OCC(=O)O)N(CC(=O)O)[C@@H]2c1ccc2c(c1)OCO2	0.0041 µM	52%	–	–	–
CCOc1ccc2c(c1)[C@H](c1ccc(OC)cc1OCC(=O)O)N(C(=O)C(=O)O)[C@@H]2c1ccc2c(c1)OCO2	> 10 µM	0%	–	–	–
CCOc1ccc2c(c1)[C@@H](c1cc(OC)c(OC)c(OC)c1OCC(=O)O)N(CC(=O)O)[C@@H]2c1ccc2c(c1)OCO2	0.31 µM	1%	–	–	–
CCOc1ccc2c(c1)[C@H](c1ccc(OC)cc1OCC(C)(C)C(=O)O)N(CC(=O)O)[C@@H]2c1ccc2c(c1)OCO2	0.014 µM	34%	–	–	–
CCOc1ccc2c(c1)[C@H](c1cccc(OC)c1OCC(=O)O)N(CC(=O)O)[C@@H]2c1ccc2c(c1)OCO2	0.11 µM	31%	–	–	–
CCOc1ccc2c(c1)[C@@H](c1ccc(OC)cc1OCC(=O)O)N(CC(=O)O)[C@@H]2c1ccc2c(c1)OCO2	0.0054 µM	15%	–	–	–
CCOc1ccc2c(c1)[C@H](c1ccc(OC)cc1OCc1nnn[nH]1)N(CC(=O)O)[C@@H]2c1ccc2c(c1)OCO2	> 1 µM	–	–	–	–
CCCOc1ccc2c(c1)[C@@H](c1ccc(OC)cc1)N(CC(=O)O)[C@@H]2c1ccc(OC)cc1OCC(=O)O	> 10 µM	0%	–	–	–
CCOc1ccc2c(c1)[C@@H](c1ccc(OC)cc1OCc1nn[nH]n1)N(CC(=O)O)[C@@H]2c1ccc2c(c1)OCO2	–	0%	–	–	–
CCOc1ccc2c(c1)[C@H](c1ccc(OC)cc1OCc1nn[nH]n1)N(CC(=O)O)[C@@H]2c1ccc2c(c1)OCO2	–	37%	–	–	–
CCOc1ccc2c(c1)[C@@H](c1cccc(OC)c1OCC(=O)O)N(CC(=O)O)[C@@H]2c1ccc2c(c1)OCO2	0.085 µM	12%	–	–	–
CCOc1ccc2c(c1)[C@@H](c1ccc(OC)cc1OCC(=O)O)N(C(=O)C(=O)O)[C@@H]2c1ccc2c(c1)OCO2	0.012 µM	11%	7.7	–	–
CCCOc1ccc2c(c1)[C@H](c1ccc(OC)cc1)N(CC(=O)O)[C@@H]2c1ccc(OC)cc1OCC(=O)O	> 10 µM	0%	–	–	–

Structure (SMILES)	IC50 (Endothelin-1 receptor [1])	inhibition [2]	pKB (Rattus norvegicus)	Ki (Endothelin-1 receptor [3])	Ki [4]
CCOc1ccc2c(c1)[C@@H](c1ccc(OC)cc1OCC(=O)O)N(c1nn[nH]n1)[C@@H]2c1ccc2c(c1)OCO2	0.031 µM	17%	–	–	–
CCCOc1ccc2c(c1)[C@@H](c1ccc(OC)cc1)N(CC(=O)O)[C@@H]2c1ccc2c(c1)OCO2	0.12 µM	–	–	–	–
CCOc1ccc2c(c1)[C@H](c1cc(OC)c(OC)c(OC)c1)N(CC(=O)O)[C@@H]2c1ccc2c(c1)OCO2	–	15%	–	–	–
CCOc1ccc2c(c1)[C@H](c1ccc(OC)cc1)N(CC(=O)O)[C@@H]2c1ccc2c(c1)OCO2	0.095 µM	23%	–	–	–
CCOc1ccc2c(c1)[C@@H](c1ccc(OC)cc1)N(CC(=O)O)[C@@H]2c1ccc2c(c1)OCO2	0.096 µM	9%	–	–	–
CCOc1ccc2c(c1)[C@@H](c1ccc(OC)cc1O)N(CC(=O)O)[C@@H]2c1ccc2c(c1)OCO2	0.077 µM	4%	–	–	–
CCOc1ccc2c(c1)[C@H](c1cc(OC)c(OC)c(OC)c1)N(c1nn[nH]n1)[C@@H]2c1ccc2c(c1)OCO2	> 10 µM	0%	–	–	–
CCOc1ccc2c(c1)[C@@H](c1ccc(OC)cc1OCCO)N(CC(=O)O)[C@@H]2c1ccc2c(c1)OCO2	> 10 µM	6%	–	–	–
CCOc1ccc2c(c1)[C@@H](c1cc(OC)c(OC)c(OC)c1)N(CC(=O)O)[C@@H]2c1ccc2c(c1)OCO2	0.066 µM	17%	–	–	–
CCOc1ccc2c(c1)[C@@H](c1ccc(OC)cc1OCCCC(=O)O)N(CC(=O)O)[C@@H]2c1ccc2c(c1)OCO2	0.022 µM	37%	–	–	–
CCCOc1ccc2c(c1)[C@H](c1ccc(OC)cc1OCC(=O)O)[C@@H](C(=O)O)[C@@H]2c1ccc2c(c1)OCO2	–	–	–	0.00043 µM	0.0147 µM
COc1ccc([C@@H]2c3cc(OC)ccc3[C@@H](c3ccc4c(c3)OCO4)N2CC(=O)O)cc1	3.3 µM	1%	–	–	–
CCOc1ccc2c(c1)[C@H](c1ccc(OC)c(OC)c1OCC(=O)O)N(CC(=O)O)[C@@H]2c1ccc2c(c1)OCO2	0.096 µM	27%	–	–	–
CCOc1ccc2c(c1)[C@@H](c1ccc(OC)cc1OCC(C)(C)C(=O)O)N(CC(=O)O)[C@@H]2c1ccc2c(c1)OCO2	0.068 µM	1%	–	–	–
CCOc1ccc2c(c1)[C@@H](c1ccc(OC)c(OC)c1OCC(=O)O)N(CC(=O)O)[C@@H]2c1ccc2c(c1)OCO2	0.0061 µM	2%	–	–	–
